Results on three molecules are retold here after the NIST ThermoML archive (doi:10.1021/acs.jced.8b01237).

As usually defined, the viscosity is the internal friction of a fluid under shear.

For this data set the following is noted: 100 kPa, Liquid, Concentric cylinders viscometry.

Numbers after ± are expanded uncertainties.

`CCCCCC[N+]1(C)CCCC1.O=S(=O)([N-]S(=O)(=O)C(F)(F)F)C(F)(F)F`: the viscosity is, setting by setting: (298.15 K) 98.3 ± 16 mPa·s; (318.15 K) 41.38 ± 6.6 mPa·s; (338.15 K) 21.88 ± 3.5 mPa·s.

On to `CCCC[N+]1(C)CCCC1.O=S(=O)([N-]S(=O)(=O)C(F)(F)F)C(F)(F)F`, for which the viscosity (298.15 K) came out at 75.6 ± 12 mPa·s, the viscosity (318.15 K) was 34.3 ± 5.5 mPa·s and the viscosity (338.15 K) came out at 18.62 ± 3 mPa·s.

In the case of `CCC[N+]1(C)CCCC1.O=S(=O)([N-]S(=O)(=O)C(F)(F)F)C(F)(F)F`, the viscosity reads like this: (298.15 K) 56.6 ± 9.1 mPa·s; (318.15 K) 26.48 ± 4.2 mPa·s; (338.15 K) 15.55 ± 2.5 mPa·s.
